Literature values in patent US20180147141A1, “CHEWING GUM COMPOSITION COMPRISING CANNABINOIDS AND GABAPENTIN” (AXIM Biotechnologies, Inc., priority 2016, published 2018).

Test system: GABA receptors
Settings: at concentrations at or below 1 millimolar

For `NCC1(CC(=O)O)CCCCC1` [Gabapentin, 1-(aminomethyl)cyclohexaneacetic acid], the “binding to GABA receptors” value is listed as “has not been shown to bind”.
